# Experimental data from patent publication US5843941A, “Ras farnesyl transferase inhibitors” (Genentech, Inc., priority 1994, dated 1998).
# Legend:
# Assay type in all cases: cell-based
# [1] = tested on: H-ras(Val12)-transformed rat-1 fibroblasts (rat 2.2 cells); assay: Changes in morphology of H-ras-transformed cells; conditions: 5 days
# Protocol: Compound 27A (denoted as BG269A in the figure) and compound 27B (denoted as BG269B in the figure) were added at 250 μM to test whether these compounds would induce reversion to a more normal phenotype as had been previously shown with microinjection of anti-Ras antibodies (see Feramisco, J. R. et al Nature 314, 639 (1985)). The H-ras transformed cells, denoted as rat 2.2 cells, were generated by transfection of rat-1 fibroblasts as described (see Seeburg, P. H., Colby, W. W., Capon, D. J., Goeddel, D. V., and Levinson, A. D. Nature 312,71 (1984)). Cells that overgrew the monolayer were extracted and plated onto agar to obtain a cell line displaying a fully transformed phenotype. Untransformed rat-1 fibroblasts and src-transformed rat-1 fibroblasts were also treated. The src-transformed cells were generated by co-transfection of rat-1 fibroblasts with pSV3.Neo.src, a vector containing the gene for src as well as the gene that confers G418 resistance, both under control of SV40 early promoters. G418-resistant cell clones that diplayed a transformed phenotype were used to generate the cell line. On day 0, cells were plated in monolayer culture at 3×10^3 cells per well (24-well plates) in 1 ml DMEM supplemented with 10% FCS, 100 U/ml penicillin, 10 μg/ml streptomycin, 2% DMSO, and 0.5 mM DTT with and without 200 μM inhibitor. On day 3, the cells were refed with the same medium. On day 5, the cells were photographed under contrast at a magnification of 100X. […] This change in morphology is remarkably similar to that seen following injection of anti-ras antibodies into ras-transformed cells (see Feramisco, J. R. et al Nature 314, 639 (1985)). Rat-1 fibroblasts transformed with the src oncogene also grew in a multilayered pattern (FIG. 6C), but this was not affected by compound 27A or compound 27B (FIG. 6D).
# [2] = tested on: src-transformed rat-1 fibroblasts; assay: Changes in morphology of src-transformed cells; conditions: FIG. 6C/6D
# Protocol: Compound 27A (denoted as BG269A in the figure) and compound 27B (denoted as BG269B in the figure) were added at 250 μM to test whether these compounds would induce reversion to a more normal phenotype as had been previously shown with microinjection of anti-Ras antibodies (see Feramisco, J. R. et al Nature 314, 639 (1985)). The H-ras transformed cells, denoted as rat 2.2 cells, were generated by transfection of rat-1 fibroblasts as described (see Seeburg, P. H., Colby, W. W., Capon, D. J., Goeddel, D. V., and Levinson, A. D. Nature 312,71 (1984)). Cells that overgrew the monolayer were extracted and plated onto agar to obtain a cell line displaying a fully transformed phenotype. Untransformed rat-1 fibroblasts and src-transformed rat-1 fibroblasts were also treated. The src-transformed cells were generated by co-transfection of rat-1 fibroblasts with pSV3.Neo.src, a vector containing the gene for src as well as the gene that confers G418 resistance, both under control of SV40 early promoters. G418-resistant cell clones that diplayed a transformed phenotype were used to generate the cell line. On day 0, cells were plated in monolayer culture at 3×10^3 cells per well (24-well plates) in 1 ml DMEM supplemented with 10% FCS, 100 U/ml penicillin, 10 μg/ml streptomycin, 2% DMSO, and 0.5 mM DTT with and without 200 μM inhibitor. On day 3, the cells were refed with the same medium. […]
# [3] = tested on: SW-480 cells; assay: Growth inhibition of human tumor line SW-480; conditions: SW480, SW-480, colon, ras transformed, read-out: % growth inhib.
# Protocol: To examine the effects of farnesyltransferase inhibition on cell growth, three cell lines (ras-transformed rat-1, src-transformed rat-1, and parental rat-1 cells) were seeded (see FIG. 7) at low density and allowed to grow for 10 days in the absence or presence of increasing concentrations of BZA-5B (compound 37). See Example 128 for description of cells. On day 0, cells were plated in monolayer culture at 2×10^3 cells per well (24-well plates) in 1 ml DMEM supplemented with 10% fetal calf serum, 100 U/ml penicillin, 100 μg/ml streptomycin, 0.5 mM DTT, 0.025% DMSO, and the indicated concentration of BZA-5B (compound 37). On days 3 and 7, cells were washed and refed with the same medium. At the time indicated in FIG. 7, cells were harvested by trypsinization and counted in a Coulter counter. Panels A, C, E show the growth rate of each cell line in the absence of inhibitor. Panels B, D, F show the inhibition of growth as a function of concentration of BZA-5B at each time point. […]
# To examine the effects of farnesyltransferase inhibition on the growth of human tumor cell lines, several such lines were treated with 25 μM BZA-5B (compound 37B) using a procedure similar to that described in Example 129 above. Cells were refed with fresh media at days 3 and 6 containing the inhibitor, and were harvested and counted as described above. […]
SMILES,effect on transformed phenotype (morphology) ([1]; FIG. 6A/6B),effect on cell density ([1]; FIG. 6B),effect on morphology of src-transformed cells [2],inhibition at 25 µM [3] [%]
"CSCC[C@H](NC(=O)CN1C(=O)C(N(C)C(=O)[C@@H](N)CS)N=C(c2ccccc2)c2ccccc21)C(=O)O (single isomer, unassigned) [27B]",reversed the transformed phenotype,grew to lower cell density,not affected,–
"COC(=O)[C@H](CCSC)NC(=O)CN1C(=O)C(N(C)C(=O)[C@@H](N)CS)N=C(c2ccccc2)c2ccccc21 (single isomer, unassigned) [37B]",–,–,–,45
